{"source": "BindingDB's records for doi:10.1124/jpet.302.1.374", "about": "(University of Rochester, 2002)", "key": {"[1]": {"molecular_target": "Kappa-type opioid receptor (Cavia porcellus, UniProt P41144)", "sequence (P41144 whole entry)": "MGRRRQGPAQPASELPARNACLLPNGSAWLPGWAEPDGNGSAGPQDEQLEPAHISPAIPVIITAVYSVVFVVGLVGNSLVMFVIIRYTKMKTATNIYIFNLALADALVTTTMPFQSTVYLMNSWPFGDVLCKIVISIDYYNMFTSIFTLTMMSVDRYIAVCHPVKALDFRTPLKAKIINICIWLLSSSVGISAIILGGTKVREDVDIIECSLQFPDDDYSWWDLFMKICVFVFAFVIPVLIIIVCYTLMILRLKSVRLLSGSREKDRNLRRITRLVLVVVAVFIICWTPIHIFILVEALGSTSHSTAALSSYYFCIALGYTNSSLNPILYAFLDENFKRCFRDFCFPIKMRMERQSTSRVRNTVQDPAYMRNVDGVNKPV"}, "[2]": {"molecular_target": "Delta-type opioid receptor (Sus scrofa, UniProt P79291)", "sequence (P79291 whole entry)": "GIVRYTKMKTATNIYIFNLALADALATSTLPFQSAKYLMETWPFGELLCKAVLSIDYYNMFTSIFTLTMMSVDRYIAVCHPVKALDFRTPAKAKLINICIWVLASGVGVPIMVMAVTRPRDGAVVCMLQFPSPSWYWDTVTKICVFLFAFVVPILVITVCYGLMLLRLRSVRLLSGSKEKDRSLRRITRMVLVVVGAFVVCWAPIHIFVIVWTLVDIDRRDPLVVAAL"}}}
{"smiles": "C[C@@H]1[C@@H]2Cc3ccc(O)cc3[C@@]1(C)CCN2CC1CC1", "note": "[(SSS)-12-Cyclopropylmethyl-13-methyl-12-aza-tricyclo[9.1.1.0*3,8*]trideca-3(8),4,6-trien-6-ol(cyclazocine)]", "values": [{"measurement": "Ki", "setting": "[1]", "result": 0.18, "unit": "nM"}, {"measurement": "Ki", "setting": "[2]", "result": 1.1, "unit": "nM"}]}
